Reference: the supplement of paper PMC10307832

These cell lines were tested with CCOC1=CC=CC=C1N=NC2=C(NN(C2=O)C3=NC(=CS3)C4=CC=CC=C4)C [BAM7] + Nc1ncn([C@H]2C[C@H](O)[C@@H](CO)O2)c(=O)n1 [Decitabine] (partner 2 µM) (assay: relative viability (nuclei count vs DMSO), 5 days (fraction); higher = more cells survive). Conditions: first compound 0.5 µM.
In short: (§1)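 Medians of duplicate plates are given as relative viability. That measure is the nuclei count in treated wells divided by the count in vehicle wells. Counts were taken on 4× images of lung cancer cell lines in 1536-well plates, 5 days after pin-tool dosing the day after seeding with one drug alone or a fixed anchor-drug dose plus five library-drug doses (not always all listed) in √10 steps.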
Work on NCI-H1651 yielded a relative viability of 0.598.
EPLC-272H showed a relative viability of 0.382.
With NCI-H1792 the relative viability was 0.557.
For NCI-H1355, the relative viability was 0.357.
Work on NCI-H3122 yielded a relative viability of 0.506.
With NCI-H1437 the relative viability was 0.527.
For NCI-H1755, the relative viability was 0.667.
NCI-H2023 gave a relative viability of 0.218.
HCC-15 showed a relative viability of 0.607.
Work on PC-14 yielded a relative viability of 0.243.
EKVX gave a relative viability of 0.372.
LC-2-ad was tested, and the relative viability was 0.786.
Cell Line NCI-H1975 has a relative viability of 0.372.
Cell Line RERF-LC-KJ has a relative viability of 0.617.
NCI-H650 gave a relative viability of 0.297.
PC-3 [JPC-3] gave a relative viability of 0.775.

Same assay, conditions: first compound 5 µM
NCI-H1651 showed a relative viability of 0.66.
Work on EPLC-272H yielded a relative viability of 0.418.
Work on NCI-H1792 yielded a relative viability of 0.458.
Cell Line NCI-H1355 has a relative viability of 0.357.
Cell Line NCI-H3122 has a relative viability of 0.514.
In the case of NCI-H1437, the relative viability is reported as 0.572.
For NCI-H1755, the relative viability was 0.774.
With NCI-H2023 the relative viability was 0.225.
HCC-15 was tested, and the relative viability was 0.587.
PC-14 gave a relative viability of 0.183.
With EKVX the relative viability was 0.355.
Work on LC-2-ad yielded a relative viability of 0.774.
NCI-H1975 showed a relative viability of 0.377.
Cell Line RERF-LC-KJ has a relative viability of 0.615.
NCI-H650 gave a relative viability of 0.323.
PC-3 [JPC-3] showed a relative viability of 0.808.

Same assay, conditions: first compound 15.81 µM
With NCI-H1651 the relative viability was 0.617.
EPLC-272H showed a relative viability of 0.317.
In the case of NCI-H1792, the relative viability is reported as 0.48.
Work on NCI-H1355 yielded a relative viability of 0.319.
Cell Line NCI-H3122 has a relative viability of 0.447.
NCI-H1437 gave a relative viability of 0.543.
In the case of NCI-H1755, the relative viability is reported as 0.711.
NCI-H2023 gave a relative viability of 0.191.
In the case of HCC-15, the relative viability is reported as 0.621.
PC-14 was tested, and the relative viability was 0.208.
EKVX showed a relative viability of 0.284.
With LC-2-ad the relative viability was 0.751.
Work on NCI-H1975 yielded a relative viability of 0.351.
With RERF-LC-KJ the relative viability was 0.398.
In the case of NCI-H650, the relative viability is reported as 0.315.
With PC-3 [JPC-3] the relative viability was 0.688.

Same assay, conditions: first compound 50 µM
NCI-H1651 was tested, and the relative viability was 0.599.
Work on EPLC-272H yielded a relative viability of 0.392.
NCI-H1792 showed a relative viability of 0.516.
NCI-H1355 gave a relative viability of 0.37.
NCI-H3122 was tested, and the relative viability was 0.444.
With NCI-H1437 the relative viability was 0.482.
NCI-H1755 was tested, and the relative viability was 0.793.
For NCI-H2023, the relative viability was 0.246.
HCC-15 was tested, and the relative viability was 0.676.
With PC-14 the relative viability was 0.208.
In the case of EKVX, the relative viability is reported as 0.334.
Cell Line LC-2-ad has a relative viability of 0.689.
Cell Line NCI-H1975 has a relative viability of 0.382.
Cell Line RERF-LC-KJ has a relative viability of 0.48.
NCI-H650 was tested, and the relative viability was 0.448.
For PC-3 [JPC-3], the relative viability was 0.766.

Each cell line was assayed with CCOC1=CC=CC=C1N=NC2=C(NN(C2=O)C3=NC(=CS3)C4=CC=CC=C4)C [BAM7] + CC(C)C[C@H](NC(=O)[C@H](Cc1ccccc1)NC(=O)c1cnccn1)B(O)O [Bortezomib] (partner 0.002 µM) in the same assay as above. Conditions: first compound 0.5 µM.
In short: as §1
NCI-H1651 showed a relative viability of 0.992.
For EPLC-272H, the relative viability was 0.893.
Cell Line NCI-H1792 has a relative viability of 1.09.
Work on NCI-H1355 yielded a relative viability of 1.2.
Cell Line NCI-H3122 has a relative viability of 1.06.
NCI-H1437 showed a relative viability of 0.537.
With NCI-H1755 the relative viability was 1.02.
Work on NCI-H2023 yielded a relative viability of 0.988.
HCC-15 showed a relative viability of 1.02.
PC-14 gave a relative viability of 0.918.
Work on EKVX yielded a relative viability of 1.2.
With LC-2-ad the relative viability was 1.05.
NCI-H1975 was tested, and the relative viability was 0.356.
Cell Line RERF-LC-KJ has a relative viability of 1.05.
Cell Line NCI-H650 has a relative viability of 0.884.
In the case of PC-3 [JPC-3], the relative viability is reported as 0.824.

Same assay, conditions: first compound 5 µM
In the case of NCI-H1651, the relative viability is reported as 0.917.
Work on EPLC-272H yielded a relative viability of 0.969.
Work on NCI-H1792 yielded a relative viability of 1.06.
Cell Line NCI-H1355 has a relative viability of 1.16.
With NCI-H3122 the relative viability was 1.13.
In the case of NCI-H1437, the relative viability is reported as 0.412.
Cell Line NCI-H1755 has a relative viability of 1.01.
NCI-H2023 showed a relative viability of 0.905.
With HCC-15 the relative viability was 1.06.
In the case of PC-14, the relative viability is reported as 1.03.
EKVX showed a relative viability of 1.15.
LC-2-ad gave a relative viability of 0.974.
Work on NCI-H1975 yielded a relative viability of 0.379.
For RERF-LC-KJ, the relative viability was 1.01.
In the case of NCI-H650, the relative viability is reported as 0.948.
In the case of PC-3 [JPC-3], the relative viability is reported as 0.751.

Same assay, conditions: first compound 15.81 µM
For NCI-H1651, the relative viability was 0.988.
EPLC-272H gave a relative viability of 0.827.
NCI-H1792 gave a relative viability of 0.97.
Cell Line NCI-H1355 has a relative viability of 1.13.
NCI-H3122 gave a relative viability of 1.04.
Work on NCI-H1437 yielded a relative viability of 0.395.
NCI-H1755 showed a relative viability of 0.949.
NCI-H2023 was tested, and the relative viability was 0.92.
HCC-15 gave a relative viability of 1.
With PC-14 the relative viability was 0.846.
Cell Line EKVX has a relative viability of 0.758.
With LC-2-ad the relative viability was 0.957.
With RERF-LC-KJ the relative viability was 0.948.
NCI-H650 was tested, and the relative viability was 0.878.
PC-3 [JPC-3] was tested, and the relative viability was 0.782.

Same assay, conditions: first compound 50 µM
NCI-H1651 was tested, and the relative viability was 0.926.
In the case of EPLC-272H, the relative viability is reported as 0.942.
Work on NCI-H1792 yielded a relative viability of 0.957.
With NCI-H1355 the relative viability was 1.11.
Cell Line NCI-H3122 has a relative viability of 1.05.
For NCI-H1437, the relative viability was 0.551.
Cell Line NCI-H1755 has a relative viability of 0.95.
Work on NCI-H2023 yielded a relative viability of 1.08.
With HCC-15 the relative viability was 0.934.
For PC-14, the relative viability was 0.806.
EKVX gave a relative viability of 0.986.
LC-2-ad showed a relative viability of 1.
For NCI-H1975, the relative viability was 0.386.
Cell Line RERF-LC-KJ has a relative viability of 0.972.
In the case of NCI-H650, the relative viability is reported as 0.885.
With PC-3 [JPC-3] the relative viability was 0.585.

Each cell line was assayed with CCn1c(-c2nonc2N)nc2c(C#CC(C)(C)O)ncc(OC[C@H]3CCCNC3)c21 + C[C@@H](Oc1cc(-c2cnn(C3CCNCC3)c2)cnc1N)c1c(Cl)ccc(F)c1Cl [Crizotinib] (partner 1 µM) in the same assay as above. Conditions: first compound 0.01 µM.
In short: as §1
With NCI-H1651 the relative viability was 0.857.
For EPLC-272H, the relative viability was 0.962.
NCI-H1792 was tested, and the relative viability was 0.961.
NCI-H1355 showed a relative viability of 1.09.
With NCI-H3122 the relative viability was 0.276.
Work on NCI-H1437 yielded a relative viability of 0.911.
NCI-H1755 gave a relative viability of 0.877.
NCI-H2023 showed a relative viability of 0.683.
